The target in the experiment is Glutamate NMDA receptor. The experiment in a line: Tested for the binding potency against NMDA site of the glutamate receptor complex using rat brain cortical membranes in a competitive binding assay with [3H]CPP as radioligand. The experiment is classed as cell membranes, Membrane.
As a reminder, the IC50 is the concentration that inhibits the measured activity by half. The low end stands for higher potency, the high end for lower potency. As to `N[C@H](C/C(CP(=O)(O)O)=N/OCc1ccccc1)C(=O)O`, the half-inhibitory concentration (IC50) turned out to be 500 nM.

As for `CC(C(=O)CP(=O)(O)O)C(N)C(=O)O` (centres undefined), the IC50 came out at 7000 nM.

Molecule `N[C@H](CC(=O)CP(=O)(O)O)C(=O)O` had an IC50 of 110 nM. `CC(N)(CC(=O)CP(=O)(O)O)C(=O)O` (centres undefined) returned an IC50 of 20000 nM. In the case of `N[C@H](C/C(CP(=O)(O)O)=N/O)C(=O)O` it was 200 nM; in that of `CC(C(=O)C[C@@H](N)C(=O)O)P(=O)(O)O` (some centres undefined), 1800 nM.

For `COP(=O)(O)CC(=O)CC(N)C(=O)O` (centres undefined), the IC50 was found to be 5000 nM. With `COC(=O)[C@H](N)CC(=O)CP(=O)(O)O`, the concentration for half-maximal inhibition (IC50) is 1700 nM. For the molecule `CO/N=C(/C[C@@H](N)C(=O)O)CP(=O)(O)O`, the IC50 was 600 nM.

Values taken from ChEMBL document CHEMBL1127094, “Competitive NMDA receptor antagonists; (R)-4-Oxo-5-phosphononorvaline structure-activity relationships” (Bioorg Med Chem Lett, 1993).
